# Reference: patent US20240043706A1, “ACTIVE ENERGY RAY-CURABLE INKJET INK FOR BEVERAGE CONTAINER, ACTIVE ENERGY RAY-CURABLE INKJET INK SET, AND IMAGE RECORDING METHOD” (FUJIFILM CORPORATION, priority 2021, published 2024)
# Experiment: Surface tension of surfactant added at 0.5% by mass to CTFA (plate method, 25° C.)
# Assay type: physicochemical
# Details: neat CTFA
# Procedure: In the present disclosure, the “polymerizable surfactant” refers to a surfactant having a polymerizable group. In the present disclosure, the “surfactant” refers to a compound in which, in a case of adding the compound in an addition amount of 0.5% by mass with respect to cyclic trimethylolpropane formal acrylate (hereinafter, referred to as “CTFA”), a surface tension is reduced 1 mN/m or more. The surface tension is measured by a plate method at 25° C. using a surface tension meter, and for example, can be measured using an automatic surface tension meter (product name “DY-300”) manufactured by Kyowa Interface Science Co., Ltd. A surface tension of CTFA is 36.5 mN/m. […]
# With regard to a product in which the content of the surfactant is not 100% by mass (for example, a product containing a solvent other than the surfactant), the content of the surfactant is adjusted to 100% by mass, and the surface tension is measured using the surfactant alone. […]
# In Tables 1 to 10, “Polyfunctional monomer/polymerizable surfactant” indicates the mass ratio of the content of the polyfunctional monomer to the content of the polymerizable surfactant. […] The surface tension reduction relative to CTFA was calculated based on the following expression.
row,Surface tension of CTFA,Molecule
1,36.5 mN/m,"C=CC(=O)OCC1(CC)COCOC1 [CTFA, cyclic trimethylolpropane formal acrylate]"

# Experiment: Specific gravity of polymerizable monomer (gravimeter)
# Assay type: physicochemical
# Details: not given
# Procedure: Among these, the polymerizable monomer preferably includes a polymerizable monomer having a specific gravity of 1.0 or less.
# In the present disclosure, the specific gravity is measured using a gravimeter, for example, a high precision electronic gravimeter (model number “EW-300SG”, manufactured by Alfa Mirage).
row,Specific gravity,Molecule
1,0.86 g/mL,C=CC(=O)OCCCCCCCCCCCCCCCCCC [Stearyl acrylate]
2,0.875 g/mL,C=CC(=O)OCCCCCCCCCCCC [Lauryl acrylate]
3,0.885 g/mL,C=CC(=O)OCCCCCCC(C)C [Isononyl acrylate]
4,0.941 g/mL,t-Butylcyclohexyl acrylate
5,0.93 g/mL,Tricyclohexyl acrylate
6,1.09 g/mL,"C=CC(=O)OCC1(CC)COCOC1 [CTFA, cyclic trimethylolpropane formal acrylate]"
7,0.875 g/mL,C=CC(=O)OCCCCCCCCC [Nonyl acrylate]
8,1.05 g/mL,C=CC(=O)OCCOCCOCCOC(=O)C=C [TEGDA]
9,0.89 g/mL,C=CC(=O)NC(C)C [N-Isopropyl acrylamide]
10,0.894 g/mL,C=CC(=O)OCCCCCCCC [n-Octyl acrylate]
11,0.968 g/mL,C=CC(=O)OCCCCCCCCCCOC(=O)C=C [Decanediol diacrylate]
12,1.00 g/mL,C=COCCOCCOCCOC=C [Triethylene glycol divinyl ether]
13,1.03 g/mL,C=CC(=O)OCCC(C)CCOC(=O)C=C [Example 3MPDDA]
14,0.871 g/mL,C=CC(=O)OCCCCCCCCCCCCCCCC(C)C [Isostearyl acrylate]

row,Molecule,Specific gravity
1,C=CC(=O)OCCCCO [Example 4-HBA],1.04 g/mL
2,C=CC(=O)OCCCCCCCC(C)C [Isodecyl acrylate],0.88 g/mL
3,C=CC(=O)OC1CCCCC1 [Cyclohexyl acrylate],0.98 g/mL
4,C=CC(=O)O[C@@H]1C[C@H]2CC[C@]1(C)C2(C)C [Isobornyl acrylate],0.987 g/mL
5,"C=CC(=O)N(C)C [N,N-Dimethylacrylamide]",0.964 g/mL

# Same assay, conditions: listed as DDDA
row,Specific gravity,Molecule
1,0.97 g/mL,C=CC(=O)OCCCCCCCCCCOC(=O)C=C [Decanediol diacrylate]
